Test results published in patent US20200345008A1, “Increased grape yields with brassinosteroid application” (priority 2019, published 2020).

Experiments:
[1] = system: grapes (var. Scarlet Royal); assay: Experiment 2: HBR spray application on Scarlet Royal grapes; assay type: in vivo; conditions: for berry hue / cluster color / soluble solids: evaluations Days 54-97; for ripening responses: ethephon standard treatment (Day 45), versus untreated check
From the text: Homobrassinolide (HBR) was applied on grapes (var. Scarlet Royal) at late bloom (Day 0), or at late bloom (Day 0) and again at approximately 1 week after berry set (Day 7). Grapes were approximately 3 mm in diameter at Day 0 and 6 mm in diameter at Day 7. HBR was applied at rates of 0.5 ppm/aiA, 1.0 ppm/aiA, and 2.0 ppm/aiA. Spray applications were made using a backpack mistblower to simulate commercial airblast applications at 100 gpa. Controls were an untreated group, and a group that received the standard treatment with Ethephon approximately two weeks after color break (Day 45). Evaluations were made at Days 54, 66, 75, 82, 90, and 97. All treated groups also received Latron B1956 which was added to each tank mix as a surfactant (0.125% v/v). Soluble solids, cluster color, and berry hue were enhanced by HBR and the ethephon standard treatment. […] Results are illustrated in Table 3 (FIG. 4).

[2] = system: grapes of the variety Flame Seedless; assay type: in vivo
From the text: Treatment (HBR) was twice applied to grapes of the variety Flame Seedless. Treatments consisted of either HBR or ProGibb (ProGibb 4%, a plant growth regulator commonly used on table grapes for berry thinning and/or increasing berry size). At the first application (Day 0) the grapes were approximately 3 mm in diameter. The second application was seven days later (Day 7) when the grapes were approximately 6 mm in diameter. The HBR was applied with a backpack mist blower at a rate if 100 gallons per acre. Grapes were evaluated for Cluster Color Rating and Cluster Color Intensity (Hue) on about Day 65 by comparing test subjects with the control of condition 1. The same data set was analyzed for berry weight, berry firmness, Brix units, and phytotoxicity.

[3] = system: grapes; conditions: Lenahan et al., 2006; cited from earlier work
[4] = two applications, or single application of 1.0 or 2.0 ppm/aiA, versus single application of 0.5 ppm/aiA HBR
[5] = HBR on Day 0 at 2.5 ppm/aiA, versus control, evaluated about Day 65

Q: With `CC[C@@H](C(C)C)C(O)C(O)[C@@H](C)[C@H]1CC[C@H]2[C@@H]3COC(=O)[C@H]4C[C@H](O)[C@H](O)C[C@]4(C)[C@H]3CC[C@]12C` (stereo in doubt) [HBR, homobrassinolide] as the compound, how does the berry hue ([1]; Scarlet Royal) read?
A: Its berry hue is “enhanced”.

Q: What about the cluster color ([1]; Scarlet Royal) of the same compound?
A: Its cluster color is “enhanced”.

Q: And the soluble solids ([1]; Scarlet Royal)?
A: The soluble solids was “enhanced”.

Q: And the “efficacy ranking of treatments” value ([1]; double spray of 2 ppm ai HBR, compared to the ethephon standard treatment)?
A: Its value is “most efficacious treatment”.

Q: What about the ripening responses ([1]; double spray of 2 ppm ai HBR) of the same compound?
A: The ripening responses was “significantly more effective than the untreated check”.

Q: What about the crop injury ([1]; in vivo) of the same compound?
A: The crop injury was “No crop injury was observed”.

Q: And the rate response ([1]; single spray timing treatments (0.5, 1.0, 2.0 ppm/aiA) versus untreated check)?
A: Its rate response is “positive rate response”.

Q: What about the hue [1, 4] of the same compound?
A: Its hue is “greater hue”.

Q: And the “percentages of clusters of color” value [1, 4]?
A: Its value is “increased percentages of clusters of color”.

Q: What about the “soluble solids and Brix degrees” value [1, 4] of the same compound?
A: Its value is “increased soluble solids and Brix degrees”.

Q: And the “degrees Brix of the grapes” value ([2]; HBR on Day 0)?
A: Its value is “tended to increase”.

Q: What about the “color intensity per reddish cluster” value [2, 5] of the same compound?
A: Its value is “more intense color per reddish cluster than control”.

Q: What about the “percentage of clusters per plot that were noticeably reddish” value [2, 5] of the same compound?
A: The value was “increased the percentage of clusters per plot that were noticeably reddish”.

Q: And the “color intensity within each identified reddish cluster” value ([2]; HBR treatment, versus control)?
A: Its value is “increased the color intensity”.

Q: What about the “percentage of reddish grapes within each identified reddish cluster” value ([2]; HBR treatment, versus control) of the same compound?
A: Its value is “increased the percentage of reddish grapes”.

Q: What about the phytotoxicity ([2]; in vivo) of the same compound?
A: Its phytotoxicity is “no observed phytotoxicity”.

Q: Which firmness of grapes [3] does the source give for `C=C1C[C@]23C[C@@]1(O)CC[C@H]2[C@@]12C=C[C@H](O)[C@@](C)(C(=O)O1)[C@H]2[C@@H]3C(=O)O` [GA3, gibberellic acid] here?
A: Its firmness of grapes is “increase firmness”.

Q: For `O=P(O)(O)CCCl` [ethephon, Ethephon, reference compound], which berry hue ([1]; Scarlet Royal) is on record?
A: The berry hue was “enhanced”.

Q: And the cluster color ([1]; Scarlet Royal)?
A: Its cluster color is “enhanced”.

Q: And the soluble solids ([1]; Scarlet Royal)?
A: Its soluble solids is “enhanced”.

Q: What about the crop injury ([1]; all treatments, Scarlet Royal) of the same compound?
A: The crop injury was “No crop injury was observed”.

Q: What about the ripening responses ([1]; double spray of 2 ppm ai HBR) of the same compound?
A: Its ripening responses is “significantly more effective than the untreated check”.
